Tests used:
[1] = test system: GABAc receptors; test: Patch clamp of GABAc expressing HEK293 cells challenged with 100 μM GABA; format: cell-based; conditions: 100 μM GABA in absence or presence of 100 μM NFA and 100 μM NPPB
Method: FIGS. 7a and 7b show the results when GABAc expressing HEK293 cells were patch clamped and challenged with 100 μM GABA in the absence and presence of 100 μM NFA and 100 μM NPPB; and
In FIGS. 7a and 7b, GABAc expressing HEK293 cells were patch clamped and challenged with 100 μM GABA in the absence or presence of 100 μM NFA and 100 μM NPPB.

[2] = molecular target: T1, Best1 channel (Mus musculus, UniProt O88870); format: cell-based; conditions: NPPB 50 μM; naïve GFAP-GFP mice; ramp protocol, Vh=−70 mV
T1 construct: from tissue; host or cells: mouse cerebellar slices / sections (Bergmann glial cells)
T1 sequence (O88870 1-551): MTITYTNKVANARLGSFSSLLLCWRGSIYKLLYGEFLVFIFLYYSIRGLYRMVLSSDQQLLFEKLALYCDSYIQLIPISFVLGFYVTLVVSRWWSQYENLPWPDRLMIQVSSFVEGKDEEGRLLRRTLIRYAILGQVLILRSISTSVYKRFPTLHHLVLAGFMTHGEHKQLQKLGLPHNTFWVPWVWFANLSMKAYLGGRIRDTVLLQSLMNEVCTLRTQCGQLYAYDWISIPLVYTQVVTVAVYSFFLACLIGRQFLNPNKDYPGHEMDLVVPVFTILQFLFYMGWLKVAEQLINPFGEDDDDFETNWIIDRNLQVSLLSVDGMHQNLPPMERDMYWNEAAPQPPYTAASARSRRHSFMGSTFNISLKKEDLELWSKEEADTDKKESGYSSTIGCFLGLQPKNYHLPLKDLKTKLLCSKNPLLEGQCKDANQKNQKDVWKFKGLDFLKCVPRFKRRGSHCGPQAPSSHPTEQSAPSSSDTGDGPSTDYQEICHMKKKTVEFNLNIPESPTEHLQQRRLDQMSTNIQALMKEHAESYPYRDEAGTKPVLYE
Method: (§1) Brain slices were prepared as described in Rossi et al., 2003. For slice recording, either approximately P28 days old or more than 8 weeks old mice were used. Animals were deeply anesthetized with halothane. After decapitation, the brain was quickly excised from the skull and submerged in ice-cold cutting solution (in mM): 250 Sucrose, 26 NaHCO3, 10 D(+)-Glucose, 4 MgCl2, 3 myo-inositol, 2.5 KCl, 2 Sodium pyruvate, 1.25 NaH2PO4, 0.5 Ascorbic acid 0.1 CaCl2, 1 Kynurenic acid, pH 7.4. All solutions were gas-treated with 95% O2-5% CO2. After trimming both sides of vermis, several parasagittal slices with […] thicknesses containing cerebellar lobes were cut using a microtome (Leica VT 1000) and transferred to extracellular ACSF solution (in mM); 126 NaCl, 24 NaHCO3, 1 NaH2PO4, 2.5 KCl, 2.5 CaCl2, 2 MgCl2, 10 D(+)-Glucose, pH 7.4. Slices were incubated for one hour at least at room temperature.
For recording, slices were transferred to an electrophysiological recording chamber (RC-26G, Warner Instruments) which is continuously superfused with ASCF (artificial cerebrospinal fluid, sigma) solution (flow rate; 2 ml/min) and controlled by flower controller (Synaptosoft) and a vacuum pump (Charles Austen, model Capex 8C). […] Fluorescence images were viewed with mercury lamp (Olympus, U-RFL-T). […]

[3] = test system: cerebellar granule cells; test: Whole-cell patch clamp of tonic GABA current in cerebellar granule cells; format: cell-based, mouse
Method: as §1
For recording, slices were transferred to an electrophysiological recording chamber (RC-26G, Warner Instruments) which is continuously superfused with ASCF (artificial cerebrospinal fluid, sigma) solution (flow rate; 2 ml/min) and controlled by flower controller (Synaptosoft) and a vacuum pump (Charles Austen, model Capex 8C). Slice chamber was mounted on the stage of an upright microscope (Olympus, Japan) and viewed with an ×60 water immersion objective with differential interference contrast and infrared optics. Cellular morphologies were visually identified by Imaging Workbench 6.0 (INDEC Systems, Inc), camera controller (Hamamatsu, C4742-95), and light microscope controller (Olympus, TH4-200). Fluorescence images were viewed with mercury lamp (Olympus, U-RFL-T). Whole cell voltage-clamp recording was made from granular cell somata or Bergmann glial cells mostly located in 2-5 cerebellar lobules
Pipette resistance for granule cells was typically 10-12 MΩ and pipette was filled with an internal solution containing (in mM) 135 CsCl, 4 NaCl, 0.5 CaCl2, 10 HEPES, 5 EGTA, 2 Mg-ATP, 0.5 Na2-GTP, 10 QX-314, pH adjusted to 7.2 with CsOH (278-285 mOsmol) was used (Rossi, et al., 2003).
B6 wildtype, GFAP-GFP and hGFAP-CreERT2 trangenic mice (SPF room, Center for Neural Science, KIST, Seoul, Korea) were anaesthetized by intraperitoneal injection of 2% avertin (20 μl/g, sigma) and placed in a stereotaxic frame (David Kopf instrument). pSicoR-b1shRNA-mCherry or scrambled virus (Macrogen) was stereo-injected into cerebellar cortex at a rate of 0.2 μl/min (total 2 μl) using syringe pump (Harvard apparatus) and 25 μl syringe (Hamilton company). The coordination of injection site was 1.7 mm from the lambda and the depth was 1.5-1.7 mm from the skull.
The glia-specific CreERT activation was initiated by intraperitoneal injection of tamoxifen for 5 days prior to lentivirus injection (FIG. 4a,b). […] Tamoxifen or sunflower oil were injected intraperitoncally once a day for 5 days before lentivirus injection.

[4] = test system: GABAA receptor; test: GABA-induced whole cell current in cerebellar granule cells; format: cell-based; conditions: NPPB application 2 and 5 min; wild B6 mouse granule cells
Method: For puffing experiment, glass electrode (5-6 MΩ) filled with […] was positioned near to the patched granular cell and puffed briefly for 500 ms by Picospritzer III (Parker instrumentation) connected with MiniDigi (Molecular Device).
The magnitudes of GABA induced current with the NPPB application (2 and 5 min) are also shown.

[5] = molecular target: T2, hBest1 (Homo sapiens, UniProt O76090); conditions: cited from earlier work
T2 sequence (O76090 1-585): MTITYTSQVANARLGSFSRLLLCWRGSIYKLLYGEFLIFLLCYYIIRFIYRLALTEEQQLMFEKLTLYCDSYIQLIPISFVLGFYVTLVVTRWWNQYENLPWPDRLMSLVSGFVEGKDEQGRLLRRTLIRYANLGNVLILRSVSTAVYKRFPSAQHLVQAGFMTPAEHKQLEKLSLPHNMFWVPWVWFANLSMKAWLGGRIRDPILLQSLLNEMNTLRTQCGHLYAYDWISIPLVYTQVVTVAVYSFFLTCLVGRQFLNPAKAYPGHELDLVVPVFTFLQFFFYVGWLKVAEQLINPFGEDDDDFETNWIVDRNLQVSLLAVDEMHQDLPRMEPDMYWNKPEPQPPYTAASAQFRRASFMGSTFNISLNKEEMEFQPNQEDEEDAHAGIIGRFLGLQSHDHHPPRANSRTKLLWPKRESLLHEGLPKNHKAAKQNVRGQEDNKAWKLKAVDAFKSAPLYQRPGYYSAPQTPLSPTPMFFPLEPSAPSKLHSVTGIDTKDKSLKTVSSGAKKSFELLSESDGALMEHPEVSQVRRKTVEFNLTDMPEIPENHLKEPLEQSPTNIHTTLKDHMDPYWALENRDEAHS

Anion current in Bergmann glial cells [2]: decreased
Compound: O=C(O)c1cc([N+](=O)[O-])ccc1NCCCc1ccccc1 [NPPB, 5-nitro-2(3-phenylpropylamino)-benzoic acid]
GABA response of GABAc expressing HEK293 cells [1]: do not have significant impact | NPPB sensitive and Best1-mediated tonic GABA release as share of total GABAzine-sensitive current [3]: about 70% | Tonic GABA current ([3]; bath application of 50 μM NPPB, 8 wks B6 mice): reduced | NPPB-sensitive component of tonic GABA current ([3]; naive mice, 50 μM NPPB): 18.95±2.47 pA | GABA-induced whole cell current [4]: did not have any effect | block of hBest1 Cl− channel [5]: readily blocked

From patent US9095535B2, “GABA release-regulating agent in cerebellum” (KOREA INSTITUTE OF SCIENCE AND TECHNOLOGY, priority 2009, dated 2015)
